Results as given in US6667037B1, “Isolated peptides which bind to HLA-B35 molecules, larger peptides which contain these, nucleic acid molecules encoding peptides, and uses thereof” (Ludwig Institute for Cancer Research, priority 1998, dated 2003).
Where a SMILES comes first, the peptide text is derived from it.

What was measured:
[1] = system: HA7-EBV cells (express HLA B*3501); experiment: 51Cr release assay: lysis of peptide-pulsed HA7-EBV cells by CTL 35-24; assay type: cell-based, human; conditions: HA7-EBV cells (HLA B*3501)
Excerpt: (§1) The same TNF assay as is described in example 2, supra, was used, except fragments of tyrosinase cDNA, rather than complete cDNA molecules, were used. Three fragments were positive, and these corresponded to nucleotides 1-1086, 427-1134, and 703-1134 of the coding region of tyrosinase cDNA. A fragment corresponding to position 574-831 was negative, leading to the conclusion that nucleotides 831-1086 encoded for the presented antigen. These correspond to amino acids 270-362 of tyrosinase, whose amino acid sequence is known. This amino acid sequence was compared to known peptides, which bind to HLA-B*3501, and its binding motif, as described by Rammensee, et al., supra, incorporated by reference. This reference describes a binding motif for HLA-B35 which is a nonapeptide, where Pro is found at position 2, and Tyr is found at position 9. For decapeptides, Ramensee, et al, gives P2 and Y10 as anchors. HLA-B*3501 was used because no information was found in the art for HLA-B*3503. Ramensee et al. also gives Phe, Met, Leu, and Ile as auxiliary anchors for P9. The peptide defined by amino acid sequence LPSSADVEF (SEQ ID NO: 1) satisfies these requisites, and is found at amino acids 312-320 of tyrosinase. […] The ^51Cr release was measured after 3.5 hours.

[2] = system: LG2-EBV cells (express HLA-B*3503); experiment: 51Cr release assay: lysis of peptide-pulsed LG2-EBV cells by CTL 35-24; assay type: cell-based, human; conditions: LG2-EBV cells (HLA-B*3503)
Excerpt: as §1

[3] = varying concentrations of peptide

CC(C)C[C@H](N)C(=O)N1CCC[C@H]1C(=O)N[C@@H](CO)C(=O)N[C@@H](CO)C(=O)N[C@@H](C)C(=O)N[C@@H](CC(=O)O)C(=O)N[C@H](C(=O)N[C@@H](CCC(=O)O)C(=O)N[C@@H](Cc1ccccc1)C(=O)O)C(C)C [SEQ ID NO: 1, LPSSADVEF] (H-LPSSADVEF-OH; N-terminus and C-terminus assumed)
EC50 ([1]; 30 minutes with peptide, then CTL 35-24, 51Cr release after 3.5 hours, read-out: dose of peptide giving half maximal lysis): ~10 nM | lysis of peptide-pulsed cells by CTL 35-24 [1, 3]: provoked lysis | EC50 ([2]; 30 minutes with peptide, then CTL 35-24, effector:target 5:1, 51Cr release after 3.5 hours, read-out: dose of peptide giving half maximal lysis): 1 nM | lysis of peptide-pulsed cells by CTL 35-24 [2, 3]: provoked lysis
